Assay [1] has as its target wild-type un-phosphorylated FGFR3 (Homo sapiens, UniProt P22607). Description: FGFR Enzymatic Assay (FRET peptide phosphorylation), FGFR3.
In assay [2] the target is wild-type un-phosphorylated FGFR1 (Homo sapiens, UniProt P11362). Description: FGFR Enzymatic Assay (FRET peptide phosphorylation), FGFR1. To be noted: pre-incubated for 4 hours.
The target of assay [3] is wild-type un-phosphorylated FGFR4 (Homo sapiens, UniProt P22455). As to the kind of experiment: FGFR Enzymatic Assay (FRET peptide phosphorylation), FGFR4.
In assay [4] the target is wild-type un-phosphorylated FGFR2 (Homo sapiens, UniProt P21802). Description: FGFR Enzymatic Assay (FRET peptide phosphorylation), FGFR2.
The mark [5] stands for this setting: read-out: FGFR1, wild-type un-phosphorylated FGFR1.
The mark [6] stands for this setting: read-out: FGFR4, wild-type un-phosphorylated FGFR4, pre-incubated for 4 hours.
Setting [7] is: FGFR1, wild-type un-phosphorylated FGFR1.

Molecules are shown by their SMILES. Where two headings read alike, the source gives them in different places.

Chain of wild-type un-phosphorylated FGFR1 (P11362 22-822): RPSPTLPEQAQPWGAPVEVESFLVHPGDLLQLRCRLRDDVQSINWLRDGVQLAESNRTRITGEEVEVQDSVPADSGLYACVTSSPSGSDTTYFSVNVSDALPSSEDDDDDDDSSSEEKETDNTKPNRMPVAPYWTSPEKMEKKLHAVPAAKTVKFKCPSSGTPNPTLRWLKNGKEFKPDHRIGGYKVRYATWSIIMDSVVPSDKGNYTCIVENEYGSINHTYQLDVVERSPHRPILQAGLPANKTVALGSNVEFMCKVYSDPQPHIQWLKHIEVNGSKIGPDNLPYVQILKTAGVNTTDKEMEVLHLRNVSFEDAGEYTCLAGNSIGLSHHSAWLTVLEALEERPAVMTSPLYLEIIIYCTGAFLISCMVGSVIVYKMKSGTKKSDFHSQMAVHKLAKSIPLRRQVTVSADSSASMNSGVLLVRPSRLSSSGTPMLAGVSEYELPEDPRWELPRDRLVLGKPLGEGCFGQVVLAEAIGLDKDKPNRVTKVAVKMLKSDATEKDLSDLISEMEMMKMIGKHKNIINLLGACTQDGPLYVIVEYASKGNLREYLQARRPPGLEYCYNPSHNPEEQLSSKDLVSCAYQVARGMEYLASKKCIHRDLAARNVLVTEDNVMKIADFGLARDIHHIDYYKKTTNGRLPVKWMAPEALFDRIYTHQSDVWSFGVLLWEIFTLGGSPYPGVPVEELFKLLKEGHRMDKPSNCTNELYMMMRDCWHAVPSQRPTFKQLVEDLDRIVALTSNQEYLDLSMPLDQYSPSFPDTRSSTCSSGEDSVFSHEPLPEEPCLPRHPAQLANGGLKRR
Chain of wild-type un-phosphorylated FGFR2 (P21802 22-821): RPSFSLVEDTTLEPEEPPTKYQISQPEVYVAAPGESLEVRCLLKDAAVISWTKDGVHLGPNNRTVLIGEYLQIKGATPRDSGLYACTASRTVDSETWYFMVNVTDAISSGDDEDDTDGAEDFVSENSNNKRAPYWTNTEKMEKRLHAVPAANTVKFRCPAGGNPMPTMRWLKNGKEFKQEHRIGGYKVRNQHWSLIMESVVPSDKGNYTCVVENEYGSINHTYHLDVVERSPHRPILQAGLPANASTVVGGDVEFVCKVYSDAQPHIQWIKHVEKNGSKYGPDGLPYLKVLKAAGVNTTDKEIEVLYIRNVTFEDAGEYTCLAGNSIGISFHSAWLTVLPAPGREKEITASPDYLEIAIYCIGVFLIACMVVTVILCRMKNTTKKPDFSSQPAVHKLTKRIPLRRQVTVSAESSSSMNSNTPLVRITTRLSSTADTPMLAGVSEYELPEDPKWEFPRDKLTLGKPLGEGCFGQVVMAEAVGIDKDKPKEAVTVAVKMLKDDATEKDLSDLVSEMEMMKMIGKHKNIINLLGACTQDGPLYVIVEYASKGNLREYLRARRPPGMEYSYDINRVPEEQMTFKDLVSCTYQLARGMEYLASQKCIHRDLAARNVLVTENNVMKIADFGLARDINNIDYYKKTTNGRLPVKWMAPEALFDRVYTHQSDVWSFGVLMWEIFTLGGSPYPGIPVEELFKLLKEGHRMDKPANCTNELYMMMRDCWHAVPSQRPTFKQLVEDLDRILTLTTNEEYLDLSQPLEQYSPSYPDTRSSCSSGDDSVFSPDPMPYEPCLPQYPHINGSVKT
Chain of wild-type un-phosphorylated FGFR4 (P22455 22-802): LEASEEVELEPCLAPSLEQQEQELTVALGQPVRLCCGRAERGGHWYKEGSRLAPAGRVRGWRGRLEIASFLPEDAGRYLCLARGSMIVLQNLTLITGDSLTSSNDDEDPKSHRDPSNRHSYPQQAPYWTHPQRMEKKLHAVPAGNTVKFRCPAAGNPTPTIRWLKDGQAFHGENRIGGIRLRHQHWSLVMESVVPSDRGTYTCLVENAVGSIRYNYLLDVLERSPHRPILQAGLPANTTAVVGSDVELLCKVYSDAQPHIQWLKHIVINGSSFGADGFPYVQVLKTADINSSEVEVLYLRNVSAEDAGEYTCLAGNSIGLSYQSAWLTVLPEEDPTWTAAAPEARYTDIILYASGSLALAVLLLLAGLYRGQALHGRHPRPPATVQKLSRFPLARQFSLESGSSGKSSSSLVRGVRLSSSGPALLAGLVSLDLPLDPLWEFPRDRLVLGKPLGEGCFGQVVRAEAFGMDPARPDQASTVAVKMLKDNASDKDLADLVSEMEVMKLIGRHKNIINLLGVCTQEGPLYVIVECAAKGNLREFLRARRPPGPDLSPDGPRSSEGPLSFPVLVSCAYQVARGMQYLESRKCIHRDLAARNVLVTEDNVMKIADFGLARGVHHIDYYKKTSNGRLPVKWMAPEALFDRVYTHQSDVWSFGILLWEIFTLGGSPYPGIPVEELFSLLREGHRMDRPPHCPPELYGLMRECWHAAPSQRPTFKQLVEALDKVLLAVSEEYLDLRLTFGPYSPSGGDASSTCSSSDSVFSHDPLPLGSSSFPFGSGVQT
Chain of wild-type un-phosphorylated FGFR3 (P22607 23-806): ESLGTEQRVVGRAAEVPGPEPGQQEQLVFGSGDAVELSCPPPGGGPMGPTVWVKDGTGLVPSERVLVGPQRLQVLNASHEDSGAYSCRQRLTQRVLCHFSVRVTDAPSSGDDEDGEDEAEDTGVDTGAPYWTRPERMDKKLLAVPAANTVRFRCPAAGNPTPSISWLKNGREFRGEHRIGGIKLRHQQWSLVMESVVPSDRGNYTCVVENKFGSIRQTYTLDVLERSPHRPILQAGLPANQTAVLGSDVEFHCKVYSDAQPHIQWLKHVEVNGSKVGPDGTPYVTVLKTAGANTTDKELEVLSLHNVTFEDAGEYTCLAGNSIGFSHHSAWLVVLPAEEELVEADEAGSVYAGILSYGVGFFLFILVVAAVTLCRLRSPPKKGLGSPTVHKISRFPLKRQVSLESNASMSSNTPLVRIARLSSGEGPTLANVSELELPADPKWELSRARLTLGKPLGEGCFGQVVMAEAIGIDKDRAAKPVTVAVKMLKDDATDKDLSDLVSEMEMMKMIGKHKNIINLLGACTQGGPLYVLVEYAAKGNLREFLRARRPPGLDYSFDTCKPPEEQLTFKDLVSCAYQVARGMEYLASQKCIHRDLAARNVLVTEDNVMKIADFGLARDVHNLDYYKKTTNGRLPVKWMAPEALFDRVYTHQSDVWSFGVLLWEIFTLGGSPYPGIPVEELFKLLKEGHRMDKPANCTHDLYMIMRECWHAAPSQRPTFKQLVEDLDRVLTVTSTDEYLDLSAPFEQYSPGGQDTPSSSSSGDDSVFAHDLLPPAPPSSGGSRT

Take `COc1cc2[nH]nc(-c3ccc(C4CN(C(=O)[C@@H]5CCCCN5C)C4)nc3)c2nc1-c1cccc2c1CCC2` [Example 173, (S)-(3-(5-(5-(2,3-Dihydro-1H-inden-4-yl)-6-methoxy-1H-pyrazolo[4,3-b]pyridin-3-yl)pyridin-2-yl)azetidin-1-yl)(1-methylpiperidin-2-yl)methanone]: the IC50 is less than 6 nM in assay [1], 6 to 40 nM in assay [2] (setting [5]), 6 to 40 nM in assay [3] (setting [6]) and less than 6 nM in assay [4].
Consider `COc1cc2[nH]nc(-c3cnn(C4CC(C#N)C4)c3)c2nc1-c1cccc2c1CCC2` (stereo not shown) [Example 16, 3-(4-(5-(2,3-Dihydro-1H-inden-4-yl)-6-methoxy-1H-pyrazolo[4,3-b]pyridin-3-yl)-1H-pyrazol-1-yl)cyclobutanecarbonitrile], for which the IC50 in assay [1] is less than 6 nM; in assay [2] (setting [7]), 40 to 100 nM; in assay [3], more than 100 nM; in assay [4], less than 6 nM.
Take `COc1cc2[nH]nc(-c3cnn(C)c3)c2nc1-c1cccc2c1OCC2` [Example 4, 5-(2,3-Dihydrobenzofuran-7-yl)-6-methoxy-3-(1-methyl-1H-pyrazol-4-yl)-1H-pyrazolo[4,3-b]pyridine]: the IC50 was less than 6 nM in assay [1]; more than 100 nM in assay [2] (setting [7]); more than 100 nM in assay [3]; 6 to 40 nM in assay [4] (read-out: FGFR2, wild-type un-phosphorylated FGFR2, pre-incubated for 4 hours).
For `COc1cc2[nH]nc(-c3ccc(N4CCN(C(N)=O)CC4)nc3)c2nc1-c1cccc2c1CCC2` [Example 60, 4-(5-(5-(2,3-Dihydro-1H-inden-4-yl)-6-methoxy-1H-pyrazolo[4,3-b]pyridin-3-yl)pyridin-2-yl)piperazine-1-carboxamide], the IC50 was less than 6 nM in assay [1], 6 to 40 nM in assay [2] (setting [5]), 6 to 40 nM in assay [3] (setting [6]) and less than 6 nM in assay [4].
In the case of `COc1cc2[nH]nc(-c3ccc(CN4CCN(C)C(=O)[C@@H]4C)nc3)c2nc1-c1cccc2c1CCC2` [Example 199, (S)-4-((5-(5-(2,3-Dihydro-1H-inden-4-yl)-6-methoxy-1H-pyrazolo[4,3-b]pyridin-3-yl)pyridin-2-yl)methyl)-1,3-dimethylpiperazin-2-one], the IC50 in assay [1] is less than 6 nM; in assay [2] (setting [7]), 40 to 100 nM; in assay [3], 40 to 100 nM; in assay [4], less than 6 nM.
On to `COc1cc2[nH]nc(-c3cnn(CC#N)c3)c2nc1-c1cccc2c1CCC2C#N` (single isomer, unassigned) [Example 185, 4-(3-(1-(Cyanomethyl)-1H-pyrazol-4-yl)-6-methoxy-1H-pyrazolo[4,3-b]pyridin-5-yl)-2,3-dihydro-1H-indene-1-carbonitrile], for which the IC50 is less than 6 nM in assay [1], 40 to 100 nM in assay [2] (setting [7]), 6 to 40 nM in assay [3] (setting [6]) and less than 6 nM in assay [4].
As for `COCC(=O)N1CC(n2cc(-c3n[nH]c4cc(OC)c(-c5cccc6c5CCC6)nc34)cn2)C1` [Example 147, 1-(3-(4-(5-(2,3-Dihydro-1H-inden-4-yl)-6-methoxy-1H-pyrazolo[4,3-b]pyridin-3-yl)-1H-pyrazol-1-yl)azetidin-1-yl)-2-methoxyethan-1-one], the IC50 is less than 6 nM in assay [1], 6 to 40 nM in assay [2] (setting [5]), 40 to 100 nM in assay [3] and less than 6 nM in assay [4].
With `COc1cc2[nH]nc(-c3ccc(C4CCN(C(C)=O)CC4)nc3)c2nc1-c1cccc2c1CCC2C#N` (single isomer, unassigned) [Example 182, 4-(3-(6-(1-Acetylpiperidin-4-yl)pyridin-3-yl)-6-methoxy-1H-pyrazolo[4,3-b]pyridin-5-yl)-2,3-dihydro-1H-indene-1-carbonitrile], the IC50 was less than 6 nM in assay [1], 6 to 40 nM in assay [2] (setting [5]), 6 to 40 nM in assay [3] (setting [6]) and less than 6 nM in assay [4].
With `COc1cc2[nH]nc(-c3cnn([C@H]4CCN(C(=O)[C@H]5C[C@H](O)C5)C4)c3)c2nc1-c1cccc2c1CCC2` [Example 144, ((S)-3-(4-(5-(2,3-Dihydro-1H-inden-4-yl)-6-methoxy-1H-pyrazolo[4,3-b]pyridin-3-yl)-1H-pyrazol-1-yl)pyrrolidin-1-yl)((trans)-3-hydroxycyclobutyl)methanone], the IC50 in assay [1] is less than 6 nM; in assay [2] (setting [5]), 6 to 40 nM; in assay [3] (setting [6]) it was 6 to 40 nM; in assay [4] it was less than 6 nM.
On to `COc1cc2[nH]nc(-c3ccc(CN4CCn5ncnc5C4)nc3)c2nc1-c1cccc2c1CCC2` [Example 163, 7-((5-(5-(2,3-Dihydro-1H-inden-4-yl)-6-methoxy-1H-pyrazolo[4,3-b]pyridin-3-yl)pyridin-2-yl)methyl)-5,6,7,8-tetrahydro-[1,2,4]triazolo[1,5-a]pyrazine], for which the IC50 is less than 6 nM in assay [1], 40 to 100 nM in assay [2] (setting [7]), 40 to 100 nM in assay [3] and less than 6 nM in assay [4].
On to `COc1cc2[nH]nc(-c3ccc(C4CCN(C(C)=O)CC4)nc3)c2nc1-c1cccc2c1CCC2` [Example 99, 1-(4-(5-(5-(2,3-Dihydro-1H-inden-4-yl)-6-methoxy-1H-pyrazolo[4,3-b]pyridin-3-yl)pyridin-2-yl)piperidin-1-yl)ethan-1-one], for which the IC50 is less than 6 nM in assay [1], 6 to 40 nM in assay [2] (setting [5]), 6 to 40 nM in assay [3] (setting [6]) and less than 6 nM in assay [4].
On to `COc1cc2[nH]nc(-c3cnn(C4CN(S(=O)(=O)CCO)C4)c3)c2nc1-c1cccc2c1CCC2` [Example 150, 2-((3-(4-(5-(2,3-Dihydro-1H-inden-4-yl)-6-methoxy-1H-pyrazolo[4,3-b]pyridin-3-yl)-1H-pyrazol-1-yl)azetidin-1-yl)sulfonyl)ethan-1-ol], for which the IC50 is less than 6 nM in assay [1], 40 to 100 nM in assay [2] (setting [7]), 40 to 100 nM in assay [3] and less than 6 nM in assay [4].
As for `COc1cc2[nH]nc(-c3ccc(C4(C#N)CCN(C(=O)CO)C4)nc3)c2nc1-c1cccc2c1CCC2` (stereo not shown) [Example 198, 3-(5-(5-(2,3-Dihydro-1H-inden-4-yl)-6-methoxy-1H-pyrazolo[4,3-b]pyridin-3-yl)pyridin-2-yl)-1-(2-hydroxyacetyl)pyrrolidine-3-carbonitrile], the IC50 is less than 6 nM in assay [1], 6 to 40 nM in assay [2] (setting [5]), 40 to 100 nM in assay [3] and less than 6 nM in assay [4].
On to `COc1cc2[nH]nc(-c3ccc(N4CCN(CCO)CC4)nc3)c2nc1-c1cccc2c1CCC2C#N` (stereo not shown) [Example 114, 4-(3-(6-(4-(2-Hydroxyethyl)piperazin-1-yl)pyridin-3-yl)-6-methoxy-1H-pyrazolo[4,3-b]pyridin-5-yl)-2,3-dihydro-1H-indene-1-carbonitrile], for which the IC50 in assay [1] was less than 6 nM; in assay [2] (setting [5]), 6 to 40 nM; in assay [3] (setting [6]), 6 to 40 nM; in assay [4], less than 6 nM.
In the case of `COc1cc2[nH]nc(-c3cnn(C)c3)c2nc1-c1cccc2c1CCC2` [Example 2, 5-(2,3-Dihydro-1H-inden-4-yl)-6-methoxy-3-(1-methyl-1H-pyrazol-4-yl)-1H-pyrazolo[4,3-b]pyridine], the IC50 in assay [1] is less than 6 nM; in assay [2] (setting [7]) it was 40 to 100 nM; in assay [3], 40 to 100 nM; in assay [4] it was less than 6 nM.
Take `COc1cc2[nH]nc(-c3ccc(C4CCC(O)CC4)nc3)c2nc1-c1cccc2c1CCC2C#N` (stereo not shown) [Example 113, 4-(3-(6-(4-Hydroxycyclohexyl)pyridin-3-yl)-6-methoxy-1H-pyrazolo[4,3-b]pyridin-5-yl)-2,3-dihydro-1H-indene-1-carbonitrile]: the IC50 in assay [1] was less than 6 nM; in assay [2] (setting [5]), 6 to 40 nM; in assay [3] it was 40 to 100 nM; in assay [4], less than 6 nM.

Values taken from patent US12083124B2 (Incyte Corporation, priority 2019, dated 2024).
